Laboratory results: publication PMC7821181, “MS Binding Assays for Glycine Transporter 2 (GlyT2) Employing Org25543 as Reporter Ligand” (Chemmedchem, 2020)

Biological target: T1, hGlyT2 (Homo sapiens, UniProt Q9Y345)
T1 construct: host or cells: HEK293 cells stably expressing hGlyT2; crude membrane fractions
T1 sequence (Q9Y345 1-797): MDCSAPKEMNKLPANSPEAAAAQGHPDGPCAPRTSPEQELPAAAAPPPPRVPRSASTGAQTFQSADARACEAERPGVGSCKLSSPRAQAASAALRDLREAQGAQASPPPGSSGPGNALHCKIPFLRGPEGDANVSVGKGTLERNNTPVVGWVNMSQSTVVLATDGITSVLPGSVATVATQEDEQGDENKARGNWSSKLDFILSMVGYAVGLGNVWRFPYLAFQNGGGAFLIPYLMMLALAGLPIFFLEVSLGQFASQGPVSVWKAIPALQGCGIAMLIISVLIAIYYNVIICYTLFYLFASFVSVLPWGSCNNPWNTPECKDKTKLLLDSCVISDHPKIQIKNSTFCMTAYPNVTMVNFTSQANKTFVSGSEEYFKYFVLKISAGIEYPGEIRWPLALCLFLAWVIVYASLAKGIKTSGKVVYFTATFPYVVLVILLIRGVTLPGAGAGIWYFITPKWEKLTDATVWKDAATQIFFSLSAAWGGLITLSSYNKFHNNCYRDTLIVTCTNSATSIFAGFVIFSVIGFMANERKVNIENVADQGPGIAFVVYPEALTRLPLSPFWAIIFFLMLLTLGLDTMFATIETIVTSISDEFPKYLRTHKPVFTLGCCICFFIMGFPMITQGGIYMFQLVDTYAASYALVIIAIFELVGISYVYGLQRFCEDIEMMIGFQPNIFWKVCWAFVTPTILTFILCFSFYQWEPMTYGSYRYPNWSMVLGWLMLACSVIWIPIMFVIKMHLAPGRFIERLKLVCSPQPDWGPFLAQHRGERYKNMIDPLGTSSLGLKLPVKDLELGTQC
Experiment: GlyT2 MS Binding Assays: saturation experiments with Org25543
Conditions: mean±SEM, n=3
Procedure: For the further characterization of the binding of Org25543 to GlyT2 saturation experiments were performed. To determine total binding of Org25543 GlyT2 membrane fractions were incubated with the reporter ligand in eight different concentrations (0.4–150 nM) and the samples analyzed after the general workup by LC‐ESI‐MS/MS as described above. Nonspecific binding was obtained from experiments that were completely analogous to the former except that protein subjected to a prior heat‐shock was used. Quantification of Org25543 in total binding samples could be realized down to the lowest nominal concentration level (0.4 nM). For nonspecific binding samples the quantification was possible down to 2 nM nominal marker concentration. For nominal marker concentrations lower than 2 nM the concentrations of Org25543 lay below the LLOQ. As it is generally acknowledged that nonspecific binding is related to nominal marker concentration in a linear fashion, ^[46] data points below this concentration were calculated by extrapolation after linear regression analysis of the data points for nonspecific binding at nominal marker concentrations from 2 to 150 nM.
For preparation of GlyT2 membrane preparations HEK293 cells, stably expressing the hGlyT2 with a confluence ≥90 %, were used (kindly provided by AbbVie (Wiesbaden, Germany)). […]

COc1cc(C(=O)NCC2(N(C)C)CCCC2)cc(OC)c1OCc1ccccc1 [Org25543, N‐[[1‐(dimethylamino)cyclopentyl]methyl]‐3,5‐dimethoxy‐4‐(phenylmethoxy)benzamide]
maximum density of binding sites (B max) (HEK293 hGlyT2 membrane preparation): 26.15±1.03 pmol (mg protein)^−1
Kd (Org25543 0.4–150 nM, read-out: K d (saturation experiments)): 7.45 nM
